This note sets out measurements from US20250228239A1, “MOLECULES HAVING PESTICIDAL UTILITY, AND INTERMEDIATES, COMPOSITIONS, AND PROCESSES, RELATED THERETO” (priority 2024, published 2025).

What all share (assay type): in vivo
Series [1] has as its system Beet Armyworm (Spodoptera exigua, LAPHEG). As to the kind of experiment: Bioassays on Beet Armyworm (BAW), 128-well diet tray assay. Conditions: Spodoptera exigua. In a few lines:
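Eight diet wells per compound were treated at 50 μg/cm^2 (acetone-water 90:10), dried, then infested with 1–5 second-instar larvae each. After five to seven days at 25 °C under 14:10 photoperiod, mortality was scored and averaged across wells.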

The subject of series [2] is Cabbage Looper (Trichoplusia ni, TRIPNI). The series can be described thus: Bioassays on Cabbage Looper (CL), 128-well diet tray assay. As to conditions: Trichoplusia ni. In a few lines: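 One to five second-instar larvae per well on artificial diet surface-treated with 50 μg/cm^2 test molecule (applied in 90:10 acetone-water, dried). Held 5–7 days at 25° C, 14:10 light-dark; percent mortality recorded per well and averaged over eight wells.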

In series [3] the test system is Yellow Fever Mosquito (Aedes aegypti, AEDSAE). As to conditions: for YFM rating: Table ABC / ABC-DP rating. In a few lines: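 Compounds from 4000 ppm DMSO stocks were diluted in 90:10 water/acetone and dispensed into wells, then infested with about 1-day-old larvae in liver-powder water. Covered plates were held at room temperature for 3 days and each well was scored for mortality against a rating scale; six replicate plates per compound.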

The mark [4] stands for this setting: Table ABC: Biological Results, species BAW, read-out: BAW.
Setting [5] is: Table ABC: Biological Results, species CL, read-out: CL.
Setting [6] is: Table ABC: Biological Results, species YFM.
Where [7] appears, read: Beet Armyworm, rating class, read-out: BAW.
Setting [8] is: Cabbage Looper, rating class, read-out: CL.
[9] abbreviates: Yellow Fever Mosquito, rating class.
Where [10] appears, read: Beet Armyworm, Table ABC / ABC-DP rating, read-out: BAW rating.
Setting [11] is: Cabbage Looper, Table ABC / ABC-DP rating, read-out: CL rating.

Where two headings read alike, the source gives them in different places.

For `O=C(Nc1ccc(F)c(NC(=O)C(F)F)c1F)c1cc(NC(=O)[C@H]2[C@H](c3ccc(F)c(C(F)(F)F)c3)C2(Cl)Cl)ccc1Cl` [F1175, 2-Chloro-5-((1R,3R)-2,2-dichloro-3-(4-fluoro-3-(trifluoromethyl)phenyl)cyclopropane-1-carboxamido)-N-(3-(2,2-difluoroacetamido)-2,4-difluorophenyl)benzamide], the pest or weed control at 50 µg/cm2 in series [1] (setting [4]) and in series [2] (setting [5]) was 50 to 100% each time. In addition, the YFM result in series [3] (setting [6]) is “A (80–100)”.

Take `O=C(Nc1c(F)ccc(NC(=O)c2cc(NC(=O)[C@H]3[C@H](c4ccc(Cl)c(Cl)c4)C3(Cl)Cl)ccc2Cl)c1F)c1ccno1` [F1671, N-(3-(2-Chloro-5-((1R,3R)-2,2-dichloro-3-(3,4-dichlorophenyl)cyclopropane-1-carboxamido)benzamido)-2,6-difluorophenyl)isoxazole-5-carboxamide]: the pest or weed control at 50 µg/cm2 in series [1] (setting [7]) and in series [2] (setting [8]) was 50 to 100% each time. The YFM entry in series [3] (setting [9]) is given as “B (More than 0 – Less than 80)”.

Take `Cc1c(NC(=O)c2cc(NC(=O)[C@H]3[C@H](c4ccc(F)c(C(F)(F)F)c4)C3(Cl)Cl)ccc2Cl)cccc1NC(=O)C(F)(F)F` [F1451, 2-Chloro-5-((1R,3R)-2,2-dichloro-3-(4-fluoro-3-(trifluoromethyl)phenyl)cyclopropane-1-carboxamido)-N-(2-methyl-3-(2,2,2-trifluoroacetamido)phenyl)benzamide]: the pest or weed control at 50 µg/cm2 in series [1] (setting [7]) and in series [2] (setting [8]) was 50 to 100% throughout. For the same molecule, the YFM result in series [3] (setting [9]) is listed as “A (80–100)”.

As to `CC(=O)Nc1cc(NC(=O)c2cc(NC(=O)[C@H]3[C@H](c4ccc(F)c(C(F)(F)F)c4)C3(Cl)Cl)ccc2F)c(F)cc1F` [F1559, N-(5-Acetamido-2,4-difluorophenyl)-5-((1R,3R)-2,2-dichloro-3-(4-fluoro-3-(trifluoromethyl)phenyl)cyclopropane-1-carboxamido)-2-fluorobenzamide], the pest or weed control at 50 µg/cm2 in series [1] (setting [7]) and in series [2] (setting [8]) was 50 to 100% each time. Besides, in series [3] (setting [9]), the YFM result was “A (80–100)”.

In the case of `CC1(C(=O)Nc2c(F)ccc(NC(=O)c3cc(NC(=O)[C@H]4[C@H](c5ccc(F)c(C(F)(F)F)c5)C4(Cl)Cl)ccc3Cl)c2F)CC1(Cl)Cl` (stereo partly drawn) [F1273, 2-Chloro-N-(3-(2,2-dichloro-1-methylcyclopropane-1-carboxamido)-2,4-difluorophenyl)-5-((1R,3R)-2,2-dichloro-3-(4-fluoro-3-(trifluoromethyl)phenyl)cyclopropane-1-carboxamido)benzamide], the pest or weed control at 50 µg/cm2 in series [1] (setting [4]) and in series [2] (setting [5]) was 50 to 100% in each case. The YFM entry in series [3] (setting [6]) is given as “A (80–100)”.

As to `CC(C)COC(C)C(=O)Nc1c(F)ccc(NC(=O)c2cc(NC(=O)[C@H]3[C@H](c4ccc(F)c(C(F)(F)F)c4)C3(Cl)Cl)ccc2Cl)c1F` (stereo partly drawn) [F1746, 2-Chloro-5-((1R,3R)-2,2-dichloro-3-(4-fluoro-3-(trifluoromethyl)phenyl)cyclopropane-1-carboxamido)-N-(2,4-difluoro-3-(2-isobutoxypropanamido)phenyl)benzamide], the pest or weed control at 50 µg/cm2 in series [1] (setting [7]) and in series [2] (setting [8]) was 50 to 100% in each case. Moreover, the YFM result in series [3] (setting [9]) was “A (80–100)”.

`COCC(=O)Nc1c(F)ccc(NC(=O)c2cc(NC(=O)[C@H]3[C@H](c4ccc(Cl)c(Cl)c4)C3(Cl)Cl)ccc2Cl)c1F` [F1254, 2-Chloro-5-((1R,3R)-2,2-dichloro-3-(3,4-dichlorophenyl)cyclopropane-1-carboxamido)-N-(2,4-difluoro-3-(2-methoxyacetamido)phenyl)benzamide]: the pest or weed control at 50 µg/cm2 in series [1] (setting [4]) and in series [2] (setting [5]) was 50 to 100% in each case. The YFM entry in series [3] (setting [6]) is given as “A (80–100)”.

For `O=C(Nc1ccc(F)c(NS(=O)(=O)c2ccccc2)c1F)c1cc(NC(=O)[C@H]2[C@H](c3ccc(F)c(C(F)(F)F)c3)C2(Cl)Cl)ccc1Cl` [F1295, 2-chloro-5-((1R,3R)-2,2-dichloro-3-(4-fluoro-3-(trifluoromethyl)phenyl)cyclopropane-1-carboxamido)-N-(2,4-difluoro-3-(phenylsulfonamido)phenyl)benzamide], the pest or weed control at 50 µg/cm2 in series [1] (setting [4]) and in series [2] (setting [5]) was 50 to 100% throughout. The YFM result in series [3] (setting [6]) was “A (80–100)”.

For the molecule `CC(C)(C)OC(=O)Nc1c(F)ccc(NC(=O)c2cc(NC(=O)[C@H]3[C@H](c4cc(Cl)cc(Cl)c4)C3(F)F)ccc2Cl)c1F` (relative stereo) [F1070, trans-tert-Butyl (3-(2-chloro-5-(3-(3,5-dichlorophenyl)-2,2-difluorocyclopropane-1-carboxamido)benzamido)-2,6-difluorophenyl)carbamate], the pest or weed control at 50 µg/cm2 in series [1] (setting [4]) and in series [2] (setting [5]) was 50 to 100% each time. In addition, the YFM result in series [3] (setting [6]) is recorded as “A (80–100)”.

Consider `CCC(F)(F)C(=O)Nc1c(F)ccc(NC(=O)c2cc(NC(=O)[C@H]3[C@H](c4ccc(F)c(C(F)(F)F)c4)C3(Cl)Cl)ccc2Cl)c1F` [F1357, 2-Chloro-5-((1R,3R)-2,2-dichloro-3-(4-fluoro-3-(trifluoromethyl)phenyl)cyclopropane-1-carboxamido)-N-(3-(2,2-difluorobutanamido)-2,4-difluorophenyl)benzamide], for which the pest or weed control at 50 µg/cm2 in series [1] (setting [4]) and in series [2] (setting [5]) was 50 to 100% in each case. The YFM entry in series [3] (setting [6]) is “A (80–100)”.

In the case of `C=CCC(=O)Nc1c(F)ccc(NC(=O)c2cc(NC(=O)[C@H]3[C@H](c4ccc(F)c(C(F)(F)F)c4)C3(Cl)Cl)ccc2Cl)c1F` [F1874, N-(3-(But-3-enamido)-2,4-difluorophenyl)-2-chloro-5-((1R,3R)-2,2-dichloro-3-(4-fluoro-3-(trifluoromethyl)phenyl)cyclopropane-1-carboxamido)benzamide], the pest or weed control at 50 µg/cm2 in series [1] (setting [10]) and in series [2] (setting [11]) was 50 to 100% throughout. Further, the YFM rating result in series [3] (Yellow Fever Mosquito) is given as “A (80–100)”.

As to `C#CCN(C(=O)CC#N)c1c(F)ccc(NC(=O)c2cc(NC(=O)[C@H]3[C@H](c4ccc(F)c(C(F)(F)F)c4)C3(Cl)Cl)ccc2Cl)c1F` [F1810, 2-Chloro-N-(3-(2-cyano-N-(prop-2-yn-1-yl)acetamido)-2,4-difluorophenyl)-5-((1R,3R)-2,2-dichloro-3-(4-fluoro-3-(trifluoromethyl)phenyl)cyclopropane-1-carboxamido)benzamide], the pest or weed control at 50 µg/cm2 in series [1] (setting [10]) and in series [2] (setting [11]) was 50 to 100% in each case. Moreover, the YFM rating result in series [3] (Yellow Fever Mosquito) is recorded as “A (80–100)”.

For the molecule `O=C(Nc1cc(F)c(F)c(Br)c1)c1cc(NC(=O)[C@H]2[C@H](c3cc(Cl)cc(Cl)c3)C2(Cl)Cl)ccc1Cl` (relative stereo) [DP11, trans-N-(3-Bromo-4,5-difluorophenyl)-2-chloro-5-(2,2-dichloro-3-(3,5-dichlorophenyl)cyclopropane-1-carboxamido)benzamide], the mortality at 50 µg/cm2 in series [1] (168 h, second instar larvae, 50 μg/cm^2 of test molecule on artificial diet, 25° C., five to seven days, average of eight wells, read-out: BAW % Control (or Mortality) rating) was 50 to 100%; in series [2] (168 h, second instar larvae, 50 μg/cm^2 of test molecule on artificial diet, 25° C., five to seven days, average of eight wells, read-out: CL % Control (or Mortality) rating), 50 to 100%. Moreover, the pest or weed control at 50 µg/cm2 in series [1] (setting [10]) and in series [2] (setting [11]) was 50 to 100% throughout. Moreover, in series [3] (Yellow Fever Mosquito), the YFM rating result is “A (80–100)”. The “YFM % Control (or Mortality) rating” value in series [3] (about 1 day-old larvae, 4000 ppm master solution diluted with 90:10 water/acetone, 15 μL per well plus 220 μL larval mixture, 3 days, mortality) was “A (80–100)”.
